Drawing on patent US11730819B2, “Peptide derivatives having novel linkage structures” (priority 2016, dated 2023), this text covers Kd and Ki for ten compounds.

The structures appear in SMILES notation. Read-outs that look alike come from different tables or passages of the source. Numbered stars: 1 amine (or outer) side, 2 acyl side, 3 side chain; on linkers, the order of the positions; unused ones are H or OH. Bridge positions count the residues as written; N and C are the ends. Square brackets hold non-standard residues; d marks the D form. Peptide text beside a SMILES is read from it. 1Nal = N[C@@H](Cc1cccc2ccccc12)C(=O)O; TBMB = c1c(C[*:1])cc(C[*:3])cc1C[*:2]; Tle = CC(C)(C)[C@H](N)C(=O)O; βAla = NCCC(=O)O; Sar = CNCC(=O)O

The assay concerns the target T1, MT1-MMP hemopexin domain (Homo sapiens, UniProt P50281).
T1 construct: residues Cys319-Gly511 from the human gene; His6 (N); made in house; host or cells: HEK293 cells (transient, pEXPR-IBA42 vector)
In words: Fluorescence polarisation competition binding assay. An excerpt: The MT1-MMP hemopexin-like repeats (also known as the MT1-MMP hemopexin domain), residues Cys319-Gly511 from the human gene, were transiently expressed in HEK293 cells as secreted N-terminally His6-tagged soluble protein, using the pEXPR-IBA42 (IBA) expression vector. Following expression, the protein was purified by Nickel-NTA affinity chromatography followed by gel filtration, and purity was checked by SDS-PAGE. Batch to batch variability was also monitored by fluorescence thermal shift experiments in the presence/absence of a hemopexin domain binding bicycle.
Binding affinity was measured using competition assays using Fluorescence Polarisation (anisotropy).
Fluoresceination may be performed on the N-terminal amino group of the peptide, which is separated from the bicycle core sequence by a sarcosine spacer (usually Sar5). This can be done during Fmoc solid phase synthesis or post-synthetically (after cyclisation with TBMB and purification) if the N-terminal amino group is unique to the peptide. Fluoresceination can also be performed on the C-terminus, usually on a Lysine introduced as the first C-terminal residue, which is then separated from the bicycle core sequence by a sarcosine spacer (usually Sar6). Thus, N-terminal tracers can have a molecular format described as Fluo-Gly-Sar5-A(BicycleCoreSequence), and (BicycleCoreSequence)-A-Sar6-K(Fluo) for a C-terminally fluoresceinated construct. Fluorescent tracers used in the Examples are A-(17-69)-A-Sar6-K(Fluo), A-(17-69-07)-A-Sar6-K(Fluo), and A-(17-69-12)-A-Sar6-K(Fluo).
Here, a pre-formed complex of PEX with the fluorescent PEX-binding tracer is titrated with free, non-fluoresceinated bicyclic peptide. Since all 17-69-based peptides are expected to bind at the same site, the titrant will displace the fluorescent tracer from PEX. Dissociation of the complex can be measured quantitatively, and the Kd of the competitor (titrant) to the target protein determined. The advantage of the competition method is that the affinities of non-fluoresceinated bicyclic peptides can be determined accurately and rapidly.
Subsequently, the non-fluorescent competitor bicyclic peptide (usually just the bicycle core sequence) is titrated, such that it displaces the fluorescent tracer from the target protein. The displacement of the tracer is measured and associated with a drop in fluorescence polarisation. The drop in fluorescence polarisation is proportional to the fraction of target protein bound with the non-fluorescent titrant, and thus is a measure of the affinity of titrant to target protein.
The raw data is fit to the analytical solution of the cubic equation that describes the equilibria between fluorescent tracer, titrant, and binding protein. The fit requires the value of the affinity of fluorescent tracer to the target protein, which can be determined separately by direct binding FP experiments (see previous section).
In general terms: In fluorescence polarisation assays a small probe gives low polarisation when free and higher when bound to something large.

Where [1] appears, read: human MT1-MMP, bicycle peptides, read-out: Binding Affinity Ki (h).
[2] abbreviates: Binding Affinity Ki (h), human MT1-MMP, bicycle peptides.

A word on the Kd: it is the concentration at which binding is half-saturated. Usually Ki stands for a dissociation constant, usually derived from enzyme kinetics or from competition with a known ligand.

Consider `CC(=O)N[C@@H](C)C(=O)N[C@H]1CNCc2cc3cc(c2)CSC[C@H](NC(=O)[C@@H](C)NC(=O)[C@H](Cc2cccc4ccccc24)NC(=O)[C@H](CCC(=O)O)NC(=O)[C@H](CC(N)=O)NC(=O)[C@@H](C)NC1=O)C(=O)N[C@@H](CCC(=O)O)C(=O)N[C@@H](CC(=O)O)C(=O)N[C@@H](Cc1ccccc1)C(=O)N[C@@H](Cc1ccc(O)cc1)C(=O)N[C@@H](CC(=O)O)C(=O)N[C@@H](C(C)(C)C)C(=O)N[C@H](C(N)=O)CNC3` [17-69-07-N385, Ac-A(Dap)(D-Ala)NE(1Nal)(D-Ala)CEDFYD(tBuGly)(Dap)], for which the Kd was determined as 0.45 nM.

Compound `C[C@H](NC(=O)CN(C)C(=O)CN(C)C(=O)CN(C)C(=O)CN(C)C(=O)CN(C)C(=O)CN(C)C(=O)CN(C)C(=O)CN(C)C(=O)CN(C)C(=O)CN(C)C(=O)CCN)C(=O)N[C@H]1CSCc2cc3cc(c2)CSC[C@H](NC(=O)[C@@H](C)NC(=O)[C@H](Cc2cccc4ccccc24)NC(=O)[C@H](CCC(=O)O)NC(=O)[C@H](CC(N)=O)NC(=O)[C@@H](C)NC1=O)C(=O)N[C@@H](CCC(=O)O)C(=O)N[C@@H](CC(=O)O)C(=O)N[C@@H](Cc1ccccc1)C(=O)N[C@@H](Cc1ccc(O)cc1)C(=O)N[C@@H](CC(=O)O)C(=O)N[C@@H](C(C)(C)C)C(=O)N[C@H](C(N)=O)CSC3` [17-69-07-N241, H-(β-Ala)-Sar10-Ala-Cys-(D-Ala)-Asn-Glu-(1Nal)-(D-Ala)-Cys-Glu-Asp-Phe-Tyr-Asp-(tBuGly)-Cys-NH2, reference compound] (H-[βAla][Sar][Sar][Sar][Sar][Sar][Sar][Sar][Sar][Sar][Sar]AC[dA]NE[1Nal][dA]CEDFYD[Tle]C-NH2; linker 13-19-26 via TBMB) came in with an equilibrium dissociation constant (Kd) of 0.23 nM.

Compound `CC(=O)N[C@@H](C)C(=O)N[C@H]1CNCc2cc3cc(c2)CSC[C@H](NC(=O)[C@@H](C)NC(=O)[C@H](Cc2cccc4ccccc24)NC(=O)[C@H](CCC(=O)O)NC(=O)[C@H](CC(N)=O)NC(=O)[C@@H](C)NC1=O)C(=O)N[C@@H](CCC(=O)O)C(=O)N[C@@H](CC(=O)O)C(=O)N[C@@H](Cc1ccccc1)C(=O)N[C@@H](Cc1ccccc1)C(=O)N[C@@H](CC(=O)O)C(=O)N[C@@H](C(C)(C)C)C(=O)N[C@H](C(N)=O)CNC3` [17-69-07-N428, Ac-A(Dap)(D-Ala)NE(1Nal)(D-Ala)CEDFF9D(tBuGly)(Dap)] registered a Kd of 3.5 nM.

As for `C#CCCC(=O)N[C@H](CC(=O)O)C(=O)N[C@H](CC(=O)O)C(=O)N[C@H](CC(=O)O)C(=O)N(C)CC(=O)N(C)CC(=O)N[C@@H](C)C(=O)N[C@H]1CN(C)Cc2cc3cc(c2)CN(C)C[C@H](NC(=O)[C@@H](C)NC(=O)[C@H](Cc2cccc4ccccc24)NC(=O)[C@H](CCC(=O)O)NC(=O)[C@H](CC(N)=O)NC(=O)[C@@H](C)NC1=O)C(=O)N[C@@H](CCC(=O)O)C(=O)N[C@@H](CC(=O)O)C(=O)N[C@@H](Cc1ccccc1)C(=O)N[C@@H](Cc1ccc(O)cc1)C(=O)N[C@@H](CC(=O)O)C(=O)N[C@@H](C(C)(C)C)C(=O)N[C@H](C(N)=O)CSC3` [17-69-07-N473, (PYA)-(D-Asp)3-Sar2-A(Dap(Me))(D-Ala)NE(1Nal)(D-Ala)(Dap(Me))EDFYD(tBuGly)C], the affinity, expressed as Ki, was 7.3 nM.

Take `CC(=O)N[C@H]1CN(C)Cc2cc3cc(c2)CN(C)C[C@@H](C(N)=O)NC(=O)[C@H](C(C)(C)C)NC(=O)[C@H](CC(=O)O)NC(=O)[C@H](Cc2ccc(O)cc2)NC(=O)[C@H](Cc2ccccc2)NC(=O)[C@H](CC(=O)O)NC(=O)[C@H](CCC(=O)O)NC(=O)[C@H](CSC3)NC(=O)[C@@H](C)NC(=O)[C@H](Cc2cccc3ccccc23)NC(=O)[C@H](CCC(=O)O)NC(=O)[C@H](CC(N)=O)NC(=O)[C@@H](C)NC1=O` [17-69-07-N461, Ac(Dap(Me))(D-Ala)NE(1Nal)(D-Ala)CEDFYD(tBuGly)(Dap(Me))]: under setting [1], the Ki was found to be 6 nM.

On to `C#CCCC(=O)NCCC(=O)N(C)CC(=O)N(C)CC(=O)N(C)CC(=O)N(C)CC(=O)N(C)CC(=O)N[C@@H](C)C(=O)N[C@H]1CN(C)Cc2cc3cc(c2)CN(C)C[C@@H](C(N)=O)NC(=O)[C@H](C(C)(C)C)NC(=O)[C@H](CC(=O)O)NC(=O)[C@H](Cc2ccc(O)cc2)NC(=O)[C@H](Cc2ccccc2)NC(=O)[C@H](CC(=O)O)NC(=O)[C@H](CCC(=O)O)NC(=O)[C@H](CSC3)NC(=O)[C@@H](C)NC(=O)[C@H](Cc2cccc3ccccc23)NC(=O)[C@H](CCC(=O)O)NC(=O)[C@H](CC(N)=O)NC(=O)[C@@H](C)NC1=O` [17-69-07-N472, (PYA)-(B-Ala)-Sar5-A(Dap(Me))(D-Ala)NE(1Nal)(D-Ala)CEDFYD(tBuGly)(Dap(Me))], for which the inhibition constant Ki under setting [1] was determined as 3.4 nM.

The compound `CC(=O)NCCC(=O)N(C)CC(=O)N(C)CC(=O)N(C)CC(=O)N(C)CC(=O)N(C)CC(=O)N(C)CC(=O)N(C)CC(=O)N(C)CC(=O)N(C)CC(=O)N(C)CC(=O)N[C@@H](C)C(=O)N[C@H]1CNCc2cc3cc(c2)CSC[C@H](NC(=O)[C@@H](C)NC(=O)[C@H](Cc2cccc4ccccc24)NC(=O)[C@H](CCC(=O)O)NC(=O)[C@H](CC(N)=O)NC(=O)[C@@H](C)NC1=O)C(=O)N[C@@H](CCC(=O)O)C(=O)N[C@@H](CC(=O)O)C(=O)N[C@@H](Cc1ccccc1)C(=O)N[C@@H](Cc1ccc(O)cc1)C(=O)N[C@@H](CC(=O)O)C(=O)N[C@@H](C(C)(C)C)C(=O)N[C@H](C(N)=O)CNC3` [17-69-07-N455, Ac-(B-Ala)-Sar10-A(Dap)(D-Ala)NE(1Nal)(D-Ala)CEDFYD(tBuGly)(Dap)] had a Ki under setting [2] of 4 nM.

As for `CC(=O)N[C@@H](C)C(=O)N[C@H]1CN(C)Cc2cc3cc(c2)CN(C)C[C@H](NC(=O)[C@@H](C)NC(=O)[C@H](Cc2cccc4ccccc24)NC(=O)[C@H](CCC(=O)O)NC(=O)[C@H](CC(N)=O)NC(=O)[C@@H](C)NC1=O)C(=O)N[C@@H](CCC(=O)O)C(=O)N[C@@H](CC(=O)O)C(=O)N[C@@H](Cc1ccccc1)C(=O)N[C@@H](Cc1ccc(O)cc1)C(=O)N[C@@H](CC(=O)O)C(=O)N[C@@H](C(C)(C)C)C(=O)N[C@H](C(N)=O)CSC3` [17-69-07-N470, Ac-A(Dap(Me))(D-Ala)NE(1Nal)(D-Ala)(Dap(Me))EDFYD(tBuGly)C], the Ki worked out at 8.3 nM.

On to `CC(=O)NCCC(=O)N(C)CC(=O)N(C)CC(=O)N(C)CC(=O)N(C)CC(=O)N(C)CC(=O)N(C)CC(=O)N(C)CC(=O)N(C)CC(=O)N(C)CC(=O)N(C)CC(=O)N[C@@H](C)C(=O)N[C@H]1CN(C)Cc2cc3cc(c2)CN(C)C[C@@H](C(N)=O)NC(=O)[C@H](C(C)(C)C)NC(=O)[C@H](CC(=O)O)NC(=O)[C@H](Cc2ccc(O)cc2)NC(=O)[C@H](Cc2ccccc2)NC(=O)[C@H](CC(=O)O)NC(=O)[C@H](CCC(=O)O)NC(=O)[C@H](CSC3)NC(=O)[C@@H](C)NC(=O)[C@H](Cc2cccc3ccccc23)NC(=O)[C@H](CCC(=O)O)NC(=O)[C@H](CC(N)=O)NC(=O)[C@@H](C)NC1=O` [17-69-07-N454, Ac-(B-Ala)-Sar10-A(Dap(Me))(D-Ala)NE(1Nal)(D-Ala)CEDFYD(tBuGly)(Dap(Me))], for which the Ki under setting [1] was found to be 3 nM.

Compound `C#CCCC(=O)N[C@@H](C)C(=O)N[C@H]1CNCc2cc3cc(c2)CSC[C@H](NC(=O)[C@@H](C)NC(=O)[C@H](Cc2cccc4ccccc24)NC(=O)[C@H](CCC(=O)O)NC(=O)[C@H](CC(N)=O)NC(=O)[C@@H](C)NC1=O)C(=O)N[C@@H](CCC(=O)O)C(=O)N[C@@H](CC(=O)O)C(=O)N[C@@H](Cc1ccccc1)C(=O)N[C@@H](Cc1ccc(O)cc1)C(=O)N[C@@H](CC(=O)O)C(=O)N[C@@H](C(C)(C)C)C(=O)N[C@H](C(N)=O)CNC3` [17-69-07-N438, PYA-A(Dap)(D-Ala)NE(1Nal)(D-Ala)CEDFYD(tBuGly)(Dap)] returned a Ki under setting [2] of 3.1 nM.
